Experimental findings from patent publication US12139458B2, “(2,5-dioxopyrrolidin-1-yl)(phenyl)-acetamide derivatives and their use in the treatment of neurological diseases” (UNIWERSYTET JAGIELLONSKI, priority 2019, dated 2024) are described below.

One series deals with HepG2 cells. The series can be described thus: ATP level, CellTiter-Glo Luminescent Cell Viability Assay. The note with it: 1-100 μM, 3 h exposure. The series is classed as cell-based. Here is the method:
In vitro hepatotoxicity assessment. The studies were conducted using the hepatoma HepG2 liver cancer cell line, which is used to assess the hepatotoxicity of the substance in vitro. A classic MTS colorimetric assay from Promega (Madison, WI, USA) was used to investigate the effect of 6 on HepG2 cell viability and proliferation. The compound was tested at four concentrations in the range (0.1-100 μM). Doxorubicin at a concentration of 1 μM was used as a reference cytostatic. In addition, the reference mitochondrial toxin carbonyl cyanide m-chlorophenylhydrazone (CCCP) at a concentration of 10 μM was also used (FIG. 10). […] In addition, cell viability was reduced to just 84% of the control, indicating a trace toxic effect of this compound on HepG2 cell lines. […]
CellTiter-Glo Luminescent Cell Viability Assay from Promega (Madison, WI, USA) was used to study ATP levels in HepG2 cells. Prior to testing, the cells were plated into white, 96-well transparent bottom culture plates from Corning (Tewksbury, MA, USA), adapted for luminescence measurement at a concentration of 1.5×10^4 cells per well. […] Luminescence measurement was carried out with an EnSpire PerkinElmer (Waltham, MA, USA) reader after adding CellTiter-Glo Luminescent Cell Viability Assay in an amount of 100 μl to the culture. Statistical significance was calculated by one-way ANOVA and Bonferroni analysis using GraphPad Prism 5. […]
Background: In ATP-based viability assays light output follows the ATP content of the culture.

For series [1], the system named is Ca2+ channel type L (verapamil binding site). Briefly: Ca2+ channel type L (verapamil binding site) affinity study. To be noted: 100 μM, rat cerebral cortex. The text has this: A unique feature of the compound 6 representing compounds of formula (II) according to the invention is the inhibition of calcium currents by blocking the transient receptor potential vanilloid type 1 (TRPV1). This effect has not been disclosed for known AEDs. TRPV1 receptor antagonism may determine the antinociceptive effect of the compounds disclosed herein. The role of the TRPV1 receptor in conduction of pain stimuli has been well documented in specialist literature (Szallasi, A.; Cortright, D. N.; Blum, C. A.; Eid, S. R. Nat. Rev. Drug. Discov. 2007, 6, 357-372). The compounds according to the invention are characterized by a complex mechanism of action, which is not described for known anticonvulsants. It should be emphasized, however, that further in vitro studies may reveal further molecular targets responsible for the pharmacological action of substances being the subject of current patent claim. The results of binding studies (sodium channel, calcium channel) and functional tests (TRPV1 receptor) for compound 6 are shown in Table 3.

Series [2] concerns voltage-dependent sodium channels in the prefrontal cortex pyramidal neurons. Briefly: In vitro electrophysiological study of sodium currents. Format: cell-based, Rats. Here is the method: The experiments were carried out in accordance with institutional and international guidelines regarding the ethics of animal research. Rats (3 weeks old) were anesthetized with ethyl chloride and decapitated. The brains were then removed and placed in ice-cold extracellular fluid. The methodology of slice preparation and pre-incubation has been described earlier (Szulczyk, B.; Nurowska, E. Biochem. Biophys. Res. Commun. 2017, 491, 291-295). The sections containing the prefrontal cortex were enzymatically and mechanically dispersed. Single prefrontal cortex pyramidal neurons were visualized using an inverted microscope (Nikon). Sodium currents were induced by rectangular depolarizing stimuli. The potential between depolarizing stimuli was maintained at −65 mV. […]
The extracellular fluid washing the neurons contained (in mM): NaCl (30), choline chloride (90), TEA-Cl (30), CaCl2 (2), MgCl2 (2), glucose (15), HEPES (10), LaCl3 (0.001) and CdCl2 (0.4) (pH 7.4). Currents were recorded using an Axopatch 1D amplifier and analyzed using pClamp software (Axon Instruments and Molecular Devices, USA). […]
The patch membrane was ruptured by suction or by an electrical stimulus, and then membrane capacitance was compensated. […] The leakage current was subtracted from the recorded currents. […]

On to `O=C(C(c1ccccc1)N1C(=O)CCC1=O)N1CCN(c2cccc(C(F)(F)F)c2)CC1` (racemic) [Compound 6, 1-(2-Oxo-1-phenyl-2-(4-(3-(trifluoromethyl)phenyl)piperazin-1-yl)ethyl)pyrrolidine-2,5-dione], for which, in the series on HepG2 cells, the “effect on ATP levels in HepG2 cells” value is “no statistically significant effect”. For the same compound, the “Inhibition of specific control binding, Ca2+ channel type L (verapamil binding site)” value in series [1] was 58.2 (100) %. Besides, in series [2] (100 μM, in the presence of the compound, holding -65 mV), the “maximum amplitude of sodium currents normalized to control (1.0)” value amounted to 0.59±0.08. The “sodium current amplitude normalized to control after washing out” value in series [2] (after wash-out of 100 μM, n=5) is given as 0.79±0.07.
